In patent publication US9174994B2, “Enhanced treatment regimens using mTor inhibitors” (INTELLIKINE LLC, priority 2011, dated 2015):

Columns and labels:
[1] = Phase I clinical trial: plasma pharmacokinetics; format: in vivo, human
Method: Adult patients with histologically confirmed advanced solid tumors were enrolled in a 3+3 dose escalation Phase I study evaluating 3 intermittent schedules of administration for compound A: QW (once weekly), QD×3d QW (3 days on 4 days off), and QD×5d QW (5 days on 2 days off), in comparison with daily dosing (QD). Safety, maximum tolerated dose (MTD), pharmacokinetics (PK) and preliminary antitumor activity were evaluated.

p4E-BP1 (T37/46) = experiment: Human peripheral blood mono-nucleocyte biomarker assay (Phosflow, Phase I trial); format: in vivo; details: all dosing regimens
Method: A BD Biosciences Phosflow assay was conducted using human peripheral blood cells. Whole blood was lysed and fixed using the provided BD Lyse/Fix buffer and permeabilized with BD Perm III buffer. Peripheral blood cells were isolated and stained using CD33 and CD20 as extracellular markers and p4E-BP1 (T37/46) as the intracellular biomarker. Cell type populations were identified as monocytes (CD33+), granulocytes (CD33 dim), lymphocytes (CD33−), B-cells (CD33−, CD20+) and T &NK cells (CD33−, CD20−) by FACS analysis. The median fluorescense intensity (MFI) of each cell type was analyzed along with the percentage of p4E-BP1 positive cells.
Pharmacodynamic (PD) endpoints were evaluated in surrogate (peripheral blood cells [PBCs], skin) and tumor tissues for the phosphorylation of TORC1-dependent markers (4EBP1/S6), and TORC2-dependent markers (AKT/PRAS40). 50 patients were treated in 3 intermittent dosing regimens; 21 in 6 cohorts ranging 7-40 mg QW, 20 in 5 cohorts ranging 6-20 mg QDx3d QW, and 9 in 3 cohorts ranging 7-13 mg QDxSd QW. […] The MTD for intermittent dosing was not reached. All adverse events (AEs) reported were reversible. The most common (≧20%, n=35) AEs considered possibly related to compound A reported in all 3 dosing regimens included nausea (51%), hyperglycemia (37%), mucosal inflammation (29%), rash (23%), asthenia (23%), vomiting (26%), and diarrhea (20%). […]

With `CC(C)n1nc(-c2ccc3oc(N)nc3c2)c2c(N)ncnc21` [compound A] the “Time per week (hrs) above 100 nM plasma conc.” value (shortened to “Time per week”) ([1]; 6 mg QD) was 20 h, the “Time per week” value ([1]; 10 mg Q5D) was 25 h and the “Time per week” value ([1]; 13 mg Q5D) was 30 h. For the same compound, the “Time per week” value ([1]; 16 mg Q3D) was 30 h, the “Time per week” value ([1]; 20 mg Q3D) was 35 h and the “Time per week” value ([1]; 30 mg QW) was 15 h. The “Time per week” value ([1]; 40 mg QW) was 20 h, the “Plasma exposures (Cmax and AUC0-24): dose dependence” value ([1]; following oral doses) was “dose-linear plasma PK” and the “p4EBP1 levels in PBC” value (p4E-BP1 (T37/46)) was “Decreases in p4EBP1 levels were seen”.
